Experimental data taken from patent US9642858B2, “Use of resazurin, or analogs thereof, for antibacterial therapy” (priority 2012, dated 2017).
In brackets after ≈: the same amount, converted by molar mass. Entries after “also recorded” stand apart in the source; their conditions may differ.

Assays:
F. novicida = format: cell-based, Francisella novicida
F. tularensis LVS = assay: microbe, parasite or virus in culture; format: cell-based, Francisella tularensis
[1] = tested on: F. tularensis LVS in primary human macrophages; format: cell-based, Francisella tularensis
N. polysaccharea = format: cell-based, Neisseria polysaccharea
Escherichia coli = format: cell-based; settings: 44 μM
N. gonorrhoeae = format: cell-based, Neisseria gonorrhoeae; settings: 44 μM
Pseudomonas aeruginosa = format: cell-based; settings: 44 μM
N. sicca = format: cell-based, Neisseria sicca
[2] = tested on: type A F. tularensis (Schu S4); format: cell-based, Francisella tularensis; settings: 44 μM
[3] = tested on: F. tularensis LVS in HEK-293 cells; format: cell-based, Francisella tularensis
[4] = tested on: primary human macrophages; assay: Viability of infected macrophages treated with resazurin (visible reduction of resazurin to resorufin)

Q: With `O=c1ccc2[n+]([O-])c3ccc(O)cc3oc-2c1` [resazurin, 7-Hydroxy-3H-phenoxazin-3-one 10-oxide] as the compound, how does the bactericidal activity (F. novicida) read?
A: The bactericidal activity was “bactericidal”.

Q: What about the F. tularensis growth (F. tularensis LVS) of the same compound?
A: The F. tularensis growth was “growth is inhibited”.

Q: And the “antibacterial activity (viable bacteria per ml)” value (F. tularensis LVS)?
A: Its value is “have antibacterial activity”.

Q: And the “antimicrobial activity, effect of medium” value (F. tularensis LVS)?
A: The value was “not affected by the choice of medium”.

Q: And the “bacterial viability over time” value (F. tularensis LVS)?
A: The value was “significant decline in viable bacteria”.

Q: What about the “bactericidal activity to F. tularensis” value (F. tularensis LVS) of the same compound?
A: The value was “bactericidal”.

Q: And the “reduction in viable F. tularensis LVS bacteria compared to growth medium alone” value (F. tularensis LVS)?
A: The value was ~10 fold.

Q: What about the viable bacteria (F. tularensis LVS) of the same compound?
A: The viable bacteria was “decrease in viable bacteria”.

Q: And the MIC (F. tularensis LVS; Francisella tularensis, read-out: minimal inhibitory concentration against F. tularensis)?
A: Its MIC is 4.4 µM (≈ 1.01 µg/mL).

Q: What about the “intracellular growth / bacterial burden” value [1] of the same compound?
A: The value was “inhibited intracellular growth; also recorded: reduces bacterial burden”.

Q: What about the viable intracellular bacteria [1] of the same compound?
A: Its viable intracellular bacteria is “substantial decrease in viable bacteria”.

Q: And the bactericidal activity (N. polysaccharea)?
A: Its bactericidal activity is “bactericidal”.

Q: What about the “bacterial viability / antimicrobial effect” value (Escherichia coli) of the same compound?
A: The value was “does not have an antimicrobial effect; also recorded: no effect on bacterial viability”.

Q: What about the “bactericidal effect on chocolate II agar” value (N. gonorrhoeae) of the same compound?
A: Its value is “potent bactericidal effect”.

Q: What about the “bacterial viability / antimicrobial effect” value (Pseudomonas aeruginosa) of the same compound?
A: The value was “does not have an antimicrobial effect; also recorded: no effect on bacterial viability”.

Q: And the bactericidal activity (N. sicca)?
A: The bactericidal activity was “bactericidal”.

Q: And the “bactericidal effect on chocolate II agar” value [2]?
A: The value was “potent bactericidal effect”.

Q: And the “intracellular growth / bacterial burden” value [3]?
A: Its value is “inhibited intracellular growth; also recorded: reduces bacterial burden”.

Q: And the “viable intracellular bacteria compared to the control” value [3]?
A: Its value is “substantial decrease in viable bacteria”.

Q: What about the “viability of macrophages (toxicity)” value [4] of the same compound?
A: The value was “still viable”.

Q: What does the source list for `O=c1ccc2nc3ccc(O)cc3oc-2c1` [resorufin]?
A: antibacterial activity (viable bacteria per ml) (F. tularensis LVS): have antibacterial activity; antimicrobial effect on F. tularensis LVS viability (CFU) relative to resazurin (F. tularensis LVS): equivalently potent antimicrobial effect; bactericidal activity to F. tularensis (F. tularensis LVS): bactericidal
